Measured values: patent publication US7723524B2, “8-cyanoquinolonecarboxylic acid derivative” (Daiichi Pharmaceutical Co., Ltd., priority 2003, dated 2010)
≈ marks a conversion by molar mass, not a printed value. Counter-ions that a name gives are not always drawn. Like-named read-outs stand apart in the source and are kept apart here.

What was measured:
S. aureus 870307 = test: Antibacterial activity (MIC), standard method of the Japanese Society of Chemotherapy; format: cell-based; conditions: Staphylococcus aureus
Protocol: (§1) Antibacterial activity of the compounds of the present invention was measured in accordance with the standard method designated by the Japanese Society of Chemotherapy. The results are shown in MIC values (μg/mL) (Table 1). For comparison with the MIC values of the compounds of the present invention, MIC values of levofloxacin (LVFX), ciprofloxacin (CPFX), and 7-[3-(R)-(1-aminocyclopropyl)pyrrolidin-1-yl]-8-cyano-1-[2-(S)-fluoro-1-(R)-cyclopropyl]-1,4-dihydro-4-oxoquinoline-3-carboxylic acid (control drug 1: represented by the following formula), which is described in International Publication WO 02/40478 pamphlet, are also shown in the table.

S. flexneri 2A 5503 = test: as above; format: cell-based; conditions: Shigella flexneri, 2A5503
Protocol: as §1

S. marcescens 10100 = test: as above; format: cell-based; conditions: Serratia marcescens
Protocol: as §1

S. epidermidis 56500 = test: as above; format: cell-based; conditions: Staphylococcus epidermidis
Protocol: as §1

P. Vulgaris 08601 = test: as above; format: cell-based; conditions: Proteus vulgaris
Protocol: as §1

E. coli NIHJ = test: as above; format: cell-based; conditions: Escherichia coli
Protocol: as §1

P. aeruginosa 32104 = test: as above; format: cell-based; conditions: Pseudomonas aeruginosa
Protocol: as §1

S. pneumoniae J24 = test: as above; format: cell-based; conditions: Streptococcus pneumoniae
Protocol: as §1

S. aureus FDA 209P = test: as above; format: cell-based; conditions: Staphylococcus aureus, FDA209P
Protocol: as §1

S. maltophilia IID 1275 = test: as above; format: cell-based; conditions: Stenotrophomonas maltophilia, IID1275
Protocol: as §1

K. pneumoniae TYPE I = test: as above; format: cell-based; conditions: Klebsiella pneumoniae
Protocol: as §1

E. faevcalis ATCC 19433 = test: as above; format: cell-based
Protocol: as §1

P. aeruginosa 32121 = test: as above; format: cell-based; conditions: Pseudomonas aeruginosa
Protocol: as §1

S. pyogenes G-36 = test: as above; format: cell-based; conditions: Streptococcus pyogenes, G36
Protocol: as §1

[1] = test system: mouse bone marrow polychromatic erythrocytes; test: Mouse bone marrow micronucleus test; format: in vivo; conditions: male Slc:ddY mice, 24 hours after administration
Protocol: By use of compound Nos. 1 and 2, a mouse bone marrow micronucleus test was performed through the following method.
Groups of mice, each consisting of five, six-week-old, male Slc:ddY mice, were used. Compound Nos. 1 and 2 were dissolved in and diluted with 0.1 mol/L NaOH/saline. The medium; i.e., 0.1 mol/L NaOH/saline, was used as a control, and a drug solution which had been prepared by dissolving and diluting cyclophosphamide in saline was used as a positive control drug. All the drug solutions were disinfected through filtration by use of a Mylex GS 0.22 μm filter. Each drug solution was intravenously administered with a regimen of 10 mL/kg single dose at a rate of 0.2 mL/min (100 and 150 mg/kg). Twenty four hours after administration, […] were collected from the femur bone, the smear preparations were prepared, and these were stained with […].

[2] = S. aureus 870307, read-out: MIC
[3] = S. marcescens 10100, read-out: MIC
[4] = S. epidermidis 56500, read-out: MIC
[5] = P. Vulgaris 08601, read-out: MIC
[6] = P. aeruginosa 32104, read-out: MIC
[7] = S. pneumoniae J24, read-out: MIC
[8] = S. aureus FDA 209P, read-out: MIC
[9] = S. maltophilia IID 1275, read-out: MIC
[10] = K. pneumoniae TYPE I, read-out: MIC
[11] = E. faevcalis ATCC 19433, read-out: MIC
[12] = P. aeruginosa 32121, read-out: MIC
[13] = S. pyogenes G-36, read-out: MIC

| SMILES | MIC (S. aureus 870307; [2]) [µg/mL] | MIC (S. flexneri 2A 5503) [µg/mL] | MIC (S. marcescens 10100; [3]) [µg/mL] | MIC (S. epidermidis 56500; [4]) [µg/mL] | MIC (P. Vulgaris 08601; [5]) [µg/mL] | MIC (E. coli NIHJ; E. coli NIHJ, read-out: MIC) [µg/mL] | MIC (P. aeruginosa 32104; [6]) [µg/mL] | MIC (S. pneumoniae J24; [7]) [µg/mL] | MIC (S. aureus FDA 209P; [8]) [µg/mL] | MIC (S. maltophilia IID 1275; [9]) [µg/mL] | MIC (K. pneumoniae TYPE I; [10]) [µg/mL] | MIC (E. faevcalis ATCC 19433; [11]) [µg/mL] | MIC (P. aeruginosa 32121; [12]) [µg/mL] | MIC (S. pyogenes G-36; [13]) [µg/mL] | also measured |
| --- | --- | --- | --- | --- | --- | --- | --- | --- | --- | --- | --- | --- | --- | --- | --- |
| N#Cc1c(N2CC[C@@H](C3(N)CC3)C2)ccc2c(=O)c(C(=O)O)cn([C@@H]3C[C@@H]3F)c12 [Control drug 1, 7-[3-(R)-(1-aminocyclopropyl)pyrrolidin-1-yl]-8-cyano-1-[2-(S)-fluoro-1-(R)-cyclopropyl]-1,4-dihydro-4-oxoquinoline-3-carboxylic acid, reference compound] | 0.39 (≈ 0.984 µM) | 0.012 (≈ 0.0303 µM) | 0.1 (≈ 0.252 µM) | 0.05 (≈ 0.126 µM) | 0.025 (≈ 0.0631 µM) | 0.012 (≈ 0.0303 µM) | 0.2 (≈ 0.505 µM) | 0.025 (≈ 0.0631 µM) | 0.006 (≈ 0.0151 µM) | 0.78 (≈ 1.97 µM) | 0.1 (≈ 0.252 µM) | 0.1 (≈ 0.252 µM) | 0.1 (≈ 0.252 µM) | 0.025 (≈ 0.0631 µM) |  |
| N#Cc1c(N2CC[C@@H](C3(N)CC3)C2)c(F)cc2c(=O)c(C(=O)O)cn(C3CC3)c12 (as salt: trifluoroacetate) (hydrate or solvate) [Compound No. 2, 7-[3-(R)-(1-Aminocyclopropyl)pyrrolidin-1-yl]-8-cyano-1-cyclopropyl-6-fluoro-1,4-dihydro-4-oxoquinoline-3-carboxylate] |  |  |  |  |  |  |  |  |  |  |  |  |  |  | melting point: 148 to 152 °C |
| CNC1([C@@H]2CCN(c3c(F)cc4c(=O)c(C(=O)O)cn([C@@H]5C[C@@H]5F)c4c3C#N)C2)CC1 [No. 3] |  | ≤ 0.003 |  |  |  |  |  |  |  |  |  |  |  |  | MIC (S. aureus 870307; 870307): 0.025 µg/mL (≈ 0.0584 µM); MIC (S. marcescens 10100; 10100): 0.05 µg/mL (≈ 0.117 µM); MIC (S. epidermidis 56500; 56500): 0.012 µg/mL (≈ 0.028 µM); MIC (P. Vulgaris 08601): 0.012 µg/mL (≈ 0.028 µM); MIC (E. coli NIHJ): ≤ 0.003 µg/mL; MIC (P. aeruginosa 32104; 32104): 0.1 µg/mL (≈ 0.233 µM); MIC (S. pneumoniae J24; J24): 0.006 µg/mL (≈ 0.014 µM); MIC (S. aureus FDA 209P): 0.006 µg/mL (≈ 0.014 µM); MIC (S. maltophilia IID 1275): 0.1 µg/mL (≈ 0.233 µM); MIC (K. pneumoniae TYPE I): 0.025 µg/mL (≈ 0.0584 µM); MIC (E. faevcalis ATCC 19433): 0.05 µg/mL (≈ 0.117 µM); MIC (P. aeruginosa 32121; 32121): 0.05 µg/mL (≈ 0.117 µM); MIC (S. pyogenes G-36): 0.006 µg/mL (≈ 0.014 µM) |
| O=C(O)c1cn(C2CC2)c2cc(N3CCNCC3)c(F)cc2c1=O [CPFX, ciprofloxacin, reference compound] | > 6.25 | 0.006 (≈ 0.0181 µM) | 0.025 (≈ 0.0754 µM) | 0.2 (≈ 0.604 µM) | ≤ 0.003 | ≤ 0.003 | 0.05 (≈ 0.151 µM) | 0.39 (≈ 1.18 µM) | 0.1 (≈ 0.302 µM) | 0.78 (≈ 2.35 µM) | 0.025 (≈ 0.0754 µM) | 0.78 (≈ 2.35 µM) | 0.025 (≈ 0.0754 µM) | 1.56 (≈ 4.71 µM) |  |
| N#Cc1c(N2CC[C@@H](C3(N)CC3)C2)c(F)cc2c(=O)c(C(=O)O)cn([C@@H]3C[C@@H]3F)c12 [No. 1] | 0.05 (≈ 0.121 µM) | ≤ 0.003 | 0.025 (≈ 0.0603 µM) | 0.006 (≈ 0.0145 µM) | 0.006 (≈ 0.0145 µM) | ≤ 0.003 | 0.1 (≈ 0.241 µM) | 0.006 (≈ 0.0145 µM) | ≤ 0.003 | 0.2 (≈ 0.483 µM) | 0.025 (≈ 0.0603 µM) | 0.025 (≈ 0.0603 µM) | 0.05 (≈ 0.121 µM) | 0.006 (≈ 0.0145 µM) | difference in the micronucleus induction rate between the control and the administration group ([1]; 150 mg/kg intravenous single dose): no significant difference; micronucleus test judgment result ([1]; intravenous single dose, up to 150 mg/kg): negative |
| CCNC1([C@@H]2CCN(c3c(F)cc4c(=O)c(C(=O)O)cn([C@@H]5C[C@@H]5F)c4c3C#N)C2)CC1 [No. 4] |  | 0.006 (≈ 0.0136 µM) |  |  |  |  |  |  |  |  |  |  |  |  | MIC (S. aureus 870307; 870307): 0.025 µg/mL (≈ 0.0565 µM); MIC (S. marcescens 10100; 10100): 0.1 µg/mL (≈ 0.226 µM); MIC (S. epidermidis 56500; 56500): 0.006 µg/mL (≈ 0.0136 µM); MIC (P. Vulgaris 08601): 0.012 µg/mL (≈ 0.0271 µM); MIC (E. coli NIHJ): 0.006 µg/mL (≈ 0.0136 µM); MIC (P. aeruginosa 32104; 32104): 0.2 µg/mL (≈ 0.452 µM); MIC (S. pneumoniae J24; J24): 0.006 µg/mL (≈ 0.0136 µM); MIC (S. aureus FDA 209P): 0.006 µg/mL (≈ 0.0136 µM); MIC (S. maltophilia IID 1275): 0.2 µg/mL (≈ 0.452 µM); MIC (K. pneumoniae TYPE I): 0.025 µg/mL (≈ 0.0565 µM); MIC (E. faevcalis ATCC 19433): 0.05 µg/mL (≈ 0.113 µM); MIC (P. aeruginosa 32121; 32121): 0.1 µg/mL (≈ 0.226 µM); MIC (S. pyogenes G-36): 0.025 µg/mL (≈ 0.0565 µM) |
| N#Cc1c(N2CC[C@@H](C3(N)CC3)C2)c(F)cc2c(=O)c(C(=O)O)cn(C3CC3)c12 [No. 2] | 0.05 (≈ 0.126 µM) | ≤ 0.003 | 0.025 (≈ 0.0631 µM) | 0.012 (≈ 0.0303 µM) | 0.006 (≈ 0.0151 µM) | ≤ 0.003 | 0.1 (≈ 0.252 µM) | 0.006 (≈ 0.0151 µM) | ≤ 0.003 | 0.1 (≈ 0.252 µM) | 0.012 (≈ 0.0303 µM) | 0.025 (≈ 0.0631 µM) | 0.05 (≈ 0.126 µM) | 0.006 (≈ 0.0151 µM) |  |
| C[C@H]1COc2c(N3CCN(C)CC3)c(F)cc3c(=O)c(C(=O)O)cn1c23 [LVFX, levofloxacin, reference compound] | > 6.25 | 0.025 (≈ 0.0692 µM) | 0.1 (≈ 0.277 µM) | 0.39 (≈ 1.08 µM) | 0.012 (≈ 0.0332 µM) | 0.012 (≈ 0.0332 µM) | 0.2 (≈ 0.553 µM) | 0.78 (≈ 2.16 µM) | 0.2 (≈ 0.553 µM) | 0.39 (≈ 1.08 µM) | 0.1 (≈ 0.277 µM) | 0.78 (≈ 2.16 µM) | 0.1 (≈ 0.277 µM) | 0.78 (≈ 2.16 µM) |  |
| N#Cc1c(N2CC[C@@H](C3(N)CC3)C2)c(F)cc2c(=O)c(C(=O)O)cn([C@@H]3C[C@@H]3F)c12 (hydrate or solvate) [Compound No. 1, 7-[3-(R)-(1-Aminocyclopropyl)pyrrolidin-1-yl]-8-cyano-6-fluoro-1-[2-(S)-fluoro-1-(R)-cyclopropyl]-1,4-dihydro-4-oxoquinoline-3-carboxylate] |  |  |  |  |  |  |  |  |  |  |  |  |  |  | melting point: 138 to 140 °C |
